Here are results for six molecules from patent publication US5514704A, “Benzothiophenes to inhibit leukotrienes” (Eli Lilly and Company, priority 1995, dated 1996).

A short description of data set [1]: MCII mast cell toxicity assay (XTT). Type of data set: cell-based. The note with it: mouse, mcii mast cells, 4-12 hours, 37° C., read-out: MCII Mast Cell Toxicity (IC50). From the text: This toxicity assay is run in parallel with the MCII mast cell LTC4 assay and serves as an indicator of compound effects on the viability and metabolic activity of the MCII cells. This "toxicity" assay is based on the ability of dehydrogenase enzymes present in viable metabolically active cells to bioreduce the tetrazolium salt XTT yielding a colored, water soluble formazan product. (see, Roehm et al.) "An improved colorimetric assay for cell proliferation and viability utilzing the tetrazolium salt XTT. J. Immunol. Methods […] (1991).
A duplicate polystyrene 96-well tissue culture plate (Costar) is set up with sensitized MCII cells, EM95 ascites, media and dilutions of the test compound as described above. The complete media is supplemented with concanavalin A induced culture supernatants from the mouse helper T cell clone D10.G4, as a source of mast cell growth factors.
Wells of the toxicity assay plate are pulsed with 25 μl XTT (Sigma) plus phenazine methosulfate (Aldrich) giving a final concentration of 0.2 mg/ml XTT and 25 μM phenazine methosulfate. The plates are incubated at 37° C. in 10% CO2 for 4-12 hours and then production of the XTT formazan product determined by measuring the optical density of the wells at a wavelength of 450 nm. The positive control on each plate is stimulated MCII cells with dimethyl sulfoxide vehicle alone and the negative control is the same reaction mixture without cells. The background negative control value is subtracted from experimental and positive control values and the data are reported as percent of positive control.
(§1) (The results are in IC50 μM). (Compound A is a compound of formula II where R6 and R7 are hydrogen, and R5 is phenyl. Compound B is a compound of formula I where R1, R2 and R3 are hydrogen. Compound C is a compound of formula II wherein R6 and R7 are methyl, and R5 is p-methoxyphenyl. Compound D is a compound of formula II wherein R1 and R2 are hydrogen, and R5 is p-hydroxyphenyl.)
Background: Tetrazolium dyes change colour on reduction, which living cells bring about.

Data set [2] addresses T1, cPLA2 (Homo sapiens, UniProt P47712).
T1 sequence (P47712 1-749): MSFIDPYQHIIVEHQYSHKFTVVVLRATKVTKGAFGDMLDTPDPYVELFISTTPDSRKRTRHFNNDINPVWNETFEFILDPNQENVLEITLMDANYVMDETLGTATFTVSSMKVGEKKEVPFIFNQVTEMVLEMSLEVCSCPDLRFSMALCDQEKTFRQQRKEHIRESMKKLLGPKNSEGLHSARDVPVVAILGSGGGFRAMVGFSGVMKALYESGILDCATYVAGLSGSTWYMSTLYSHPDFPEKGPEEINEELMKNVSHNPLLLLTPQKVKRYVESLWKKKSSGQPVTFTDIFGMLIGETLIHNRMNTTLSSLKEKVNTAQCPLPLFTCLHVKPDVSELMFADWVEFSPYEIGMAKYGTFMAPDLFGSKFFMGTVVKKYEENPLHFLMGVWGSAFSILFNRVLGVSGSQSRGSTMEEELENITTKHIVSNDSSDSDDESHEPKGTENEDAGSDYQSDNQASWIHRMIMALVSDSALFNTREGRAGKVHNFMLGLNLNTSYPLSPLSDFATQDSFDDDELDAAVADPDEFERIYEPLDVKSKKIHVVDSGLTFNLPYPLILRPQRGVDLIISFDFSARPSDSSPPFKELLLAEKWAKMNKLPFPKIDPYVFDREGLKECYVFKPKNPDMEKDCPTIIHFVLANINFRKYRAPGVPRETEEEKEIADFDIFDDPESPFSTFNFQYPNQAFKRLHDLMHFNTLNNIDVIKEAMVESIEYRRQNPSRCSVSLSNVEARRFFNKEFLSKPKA
Nature of the data set: cPLA2 Enzymatic Activity Assay, 14C-PC/DG liposome substrate. Type of data set: biochemical. The protocol: (§2) The substrate, sonicated liposomes containing 1-palmitoyl-2 ^14 C!arachidonoyl-sn-glycerol-3-phosphocholine ( ^14 C!PC, 55 mCi/mmol from NEN Research Products) and sn-1,2-dioleoylglycerol (DG, Avanti Polar Lipids, Birmingham, Ala.) at a molar ratio of 2:1, are prepared as follows. ^14 C!PC (20 nmol, 1×10^6 dpm, 50 uCi/ml in toluene/ethanol) and DG (10 nmol, 100 ug/ml in chloroform) are dried under nitrogen. The lipids are dispersed in 1 ml of 150 mM NaC1, 50 mM Hepes, pH 7.5 (assay buffer) by sonication at 4° C., with Microson probe-sonicator (Heat Systems Ultrasonics) for 4×15 seconds, with 45 second intervals. Bovine serum albumin (essentially fatty acid free, from a 100 mg/ml stock in water, Sigma) is added to a final concentration of 4 mg/ml. Samples to be assayed for cPLA2 activity are incubated with 50 ul liposomes (0.5 nmol ^14 C!PC, 50,000 dpm containing 0.25 nmol of DG) in a total volume of 0.2 ml of assay buffer containing 1 mM CaCl2 and 1 mM 2-ME. Incubations are carried out at 37° C. for 15 minutes and terminated by adding 2 ml of Dole's reagent (2-propanol/heptane/0.5M sulfuric acid, 40:10:1 containing 10 ug/ml of stearic acid). After mixing, 1.2 ml of heptane and 1 ml of water are added. The mixtures are briefly vortexed and the upper phase transferred to tubes containing 2 ml of heptane and 150 mg of Bio-Sil (Bio-Rad Laboratories) activated at 130° C. before use. The tubes are thoroughly vortexed and centrifuged (1000×g for 5 minutes). The supernatants are decanted into scintillation vials. After addition of 10 ml of a liquid scintillation cocktail (Ready Protein+, Beckman) radioactivity is counted using a Beckman liquid scintillation counter Model LS 7000. High radioactive counts correlate with enzymatic activity. The chromogenic cPLA2 enzyme assay used is analogous to Reynolds et al., Analytical Biochemistry, 217, 25-32 (1194).
as §1

For data set [3], the target named is T1, cPLA2. Nature of the data set: cPLA2 enzyme assay, chromogenic. Format: biochemical. The protocol: as §2, with “The mixtures are briefly vortexed and the upper phase transferred to tubes containing 2 ml of heptane and 150 mg of Bio-Sil (Bio-Rad Laboratories) activated at 130° C. before use. The tubes are thoroughly vortexed and centrifuged (1000×g for 5 minutes). The supernatants are decanted into scintillation vials.” left out, “High radioactive counts correlate with enzymatic activity. The chromogenic cPLA2 enzyme assay used is analogous to Reynolds et al., Analytical Biochemistry, 217, 25-32 (1194).” left out

Data set [4] addresses T2, 5-lipoxygenase (Homo sapiens, UniProt P09917).
T2 construct: The resultant supernatant containing the cytosolic 5-lipoxygenase activity is stored frozen; from tissue; host or cells: peripheral blood neutrophils, 20,000×g supernatant of sonicate
T2 sequence (P09917 1-674): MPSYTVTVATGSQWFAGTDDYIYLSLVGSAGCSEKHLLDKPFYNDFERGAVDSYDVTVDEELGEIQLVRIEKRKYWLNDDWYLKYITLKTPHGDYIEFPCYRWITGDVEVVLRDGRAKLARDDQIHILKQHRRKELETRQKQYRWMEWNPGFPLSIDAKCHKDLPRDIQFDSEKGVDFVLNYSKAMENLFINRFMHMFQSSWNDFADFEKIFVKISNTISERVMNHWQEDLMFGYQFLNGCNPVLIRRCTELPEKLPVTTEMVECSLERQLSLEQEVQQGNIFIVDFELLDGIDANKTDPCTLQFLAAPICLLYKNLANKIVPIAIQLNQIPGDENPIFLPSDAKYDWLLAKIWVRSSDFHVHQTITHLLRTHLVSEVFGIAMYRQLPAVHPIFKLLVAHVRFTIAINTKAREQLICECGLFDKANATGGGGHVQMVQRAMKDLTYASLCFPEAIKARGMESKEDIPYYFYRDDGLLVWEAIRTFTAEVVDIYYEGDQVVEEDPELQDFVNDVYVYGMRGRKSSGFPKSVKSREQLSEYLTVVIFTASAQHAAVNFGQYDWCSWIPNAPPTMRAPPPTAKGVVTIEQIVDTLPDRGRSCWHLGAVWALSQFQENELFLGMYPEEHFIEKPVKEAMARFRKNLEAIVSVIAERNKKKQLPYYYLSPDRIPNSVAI
As to the kind of experiment: 5-Lipoxygenase (5-LPO) Assay: inhibition of leukotriene B4 formation by human neutrophil 20,000×g supernatant. Format: biochemical.
Protocol: To determine the effect of compounds on 5-lipoxygenase activity, peripheral blood neutrophils are separated by density centrifugation as described (Marder et al., Prostaglandins Leukot. and Essent. Fatty Acids 46, 265-270, 1992) and the cytosolic 5-lipoxygenase is prepared from isolated neutrophils according to a modification of Carter et al., (J. Pharmacolo Exp. Thero 256, 929-937 (1991)). Briefly, neutrophils are washed twice in buffer (in millimolar: PIPES, 10; BES, 10; and EDTA, 1; pH 6.8) and diluted to 2.5×10^7 cells/ml. Cells are disrupted with sonication and the cytosolic fraction obtained by centrifugation at 20,000×g for 20 min. at 4° C. The resultant supernatant containing the cytosolic 5-lipoxygenase activity is stored frozen at -70° C. prior to use. Compounds are evaluated for 5-lipoxygenase inhibitory activity. Varying concentration of compounds in 200 ml aliquots containing 50 ml of human 20,000×g supernatant in assay buffer (in millimolar: PIPES, 10; BES, 10; EDTA, 1; NaCl, 100; ATP, 1.56; and CaCl2, 2.5; pH 6.8) containing 3.0 mM AA are used. The reaction proceeds for 5 minutes at 37° C. and is terminated upon the addition of 50 ml EDTA (250 mM). The percent inhibition of leukotriene B4 is determined for each concentration of test compound as compared to vehicle (containing no compound) control. The concentration representing 50% inhibition (IC50) is determined by standard mathematical techniques. Leukotriene B4 is determined by EIA. EIA reagents were purchased from Caymen Chemical Co. (Ann Arbor, Mich.) and used according to the assay procedures as outlined therein.

For data set [5], the system named is thromboxane B2 (TxB2) production, human plasma-depleted blood. Nature of the data set: Inhibition of TxB2 production by plasma-depleted blood. Format: cell-based. The following applies: read-out: Plasma DPLTD Blood TxB2 (IC50). The protocol:
Compounds are evaluated for their ability to inhibit production of leukotriene B4 (LTB4) and thromboxane B2 (TxB2) upon stimulation of human plasma-depleted blood with formyl-methionyl-leucyl-phenylalanine (FMLP) and thrombin. LTB4 is produced by neutrophils and TxB2 by platelets stimulated at their respective receptors with FMLP and thrombin. The assay is carried out in 1 ml deep well polypropylene 96-well plates (Beckman). For the tests ten ml of blood is collected in EDTA at a final concentration of 1.5 mg/ml. Then, 40 ml glucose phosphate buffer containing 0.1% gelatin is added and the suspension centrifuged at 900 g for 10 minutes at room temperature. The supernatant is discarded and the cells washed once with 50 ml buffer before resuspending them in 50 ml Krebs-Ringers-Henseleit Buffer containing 0.1% gelatin, 1 mM CaCl2, 1.1 mM MgCl2 (KRH buffer). Working solutions of test compounds are made by dissolving the material in DMSO at 10 mM and diluting with appropriate amounts of KRH buffer. An agonist solution is made containing 1 μM FMLP (sigma) and 10 units/ml of thrombin in KRH buffer (Enzyme Research Labs). […] The amount of LTB4 and TxB2 produced is determined by the use of a competitive enzyme immunoassay using commercial reagents from Cayman Chemical. […]

Take `O=C(c1ccc2ccccc2c1)c1c(-c2ccc(O)cc2)sc2cc(O)ccc12` [Example 3, 6-hydroxyphenyl-2-(p-hydroxyphenyl)-(benzo(B)thien-3-yl)(β-napthyl)methanone]: the CC50 in data set [1] is more than 10 µM. The values for the IC50 in data set [2], in data set [3] and in data set [4] were 2.3 ± 0.6 µM, 122 µM and 1 ± 0.5 µM, respectively.

With `O=C(c1ccccc1)c1c(-c2ccc(O)cc2)sc2cc(O)ccc12` [Compound A], in data set [1], the CC50 was 0.3 µM. Moreover, the IC50 in data set [2] (14C-PC/DG liposomes, 37° C., 15 min, pH 7.5, read-out: C-PLA2 Enzyme, C14PC/DA6 (IC50)) was found to be 7.3 ± 0.5 µM.

Regarding `O=C(c1ccc(O)cc1)c1c(-c2ccc(O)cc2)sc2cc(O)ccc12` [Compound D], the IC50 in data set [5] is more than 9.8 µM.

With `O=C(c1cccc2ccccc12)c1c(-c2ccc(O)cc2)sc2cc(O)ccc12` [Example 2, 6-hydroxyphenyl-2-(p-hydroxyphenyl)-(benzo(B)thien-3-yl)(α-napthyl)methanone], in data set [1], the CC50 was more than 10 µM. The IC50 stood at 4.8 ± 1.6 µM in data set [2] and 1.7 ± 0.9 µM in data set [4].

In the case of `O=C(c1ccc(-c2ccccc2)cc1)c1c(-c2ccc(O)cc2)sc2cc(O)ccc12` [Example 1, 6-hydroxyphenyl-2-(p-hydroxyphenyl)-(benzo(B)thien-3-yl)(p-phenyl)phenyl methanone], the CC50 in data set [1] is more than 10 µM. Also, the results for the IC50 in data set [2] and in data set [3] were less than 1.2 µM and 146 µM, respectively.

For `Oc1ccc(-c2cc3ccc(O)cc3s2)cc1` [Compound B], in data set [1], the CC50 is less than 10 µM. Further, the IC50 was determined as 7 ± 0.8 µM in data set [2] and 0.2 ± 0.007 µM in data set [4].
